EP0326331B1, “Substituted quinolines and cinnolines” (Dow AgroSciences LLC, priority 1988, dated 1989)
Like-named read-outs stand apart in the source and are kept apart here.

Legend:
Format in all cases: in vivo
[1] = tested on: Twospotted spider mites (Tetranychus urticae Koch); experiment: Mite/insect screen, SM; conditions: for mortality at 200 ppm / mortality at 400 ppm: Tetranychus urticae, percent mortality, read-out: SM RESULTS %
Procedure, shortened: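 Foliar spray to runoff (10 psi), 1 h drying; aqueous dilutions from acetone/alcohol emulsifier stock. Mortality (%) after standard exposure.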

[2] = tested on: Septoria tritici (leaf blotch); experiment: Test 1 greenhouse foliar spray screen, leaf blotch on wheat; conditions: for LEAF BLOT: disease control rating, foliar spray on wheat, 400 ppm (+++ at 100 ppm)
[3] = tested on: Puccinia recondita tritici (leaf rust); experiment: Test 1 greenhouse foliar spray screen, leaf rust on wheat; conditions: for LEAF RUST: disease control rating, foliar spray on wheat, 400 ppm (+++ at 100 ppm)
corn rootworm = experiment: Mite/insect screen, CRW; conditions: percent mortality, read-out: CRW RESULTS %
Procedure, shortened: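 Read-out: % mortality after standard exposure. Formulation: acetone/alcohol (50:50) with emulsifiers at 23 g and 13 g per liter, water-diluted to final test levels.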

[4] = tested on: Erysiphe graminis tritici (powdery mildew); experiment: Test 1 greenhouse foliar spray screen, powdery mildew on wheat; conditions: for POWD MDEW: disease control rating, foliar spray on wheat, 400 ppm (+++ at 100 ppm)
[5] = tested on: southern armyworm (Spodopetra eridania Cramer); experiment: Mite/insect screen, SAW; conditions: Spodoptera eridania, percent mortality, read-out: SAW RESULTS %
Procedure, shortened: (§1)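 Read-out: percent mortality after standard exposure periods. Test solutions were water dilutions of compound dissolved in acetone/alcohol (50:50) with emulsifier blends; leaves were sprayed to runoff on both surfaces and air-dried for one hour before exposure.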

[6] = tested on: Venturia inaequalis (apple scab); experiment: Test 1 greenhouse foliar spray screen, apple scab on apple seedling; conditions: for APPL SCAB: disease control rating, foliar spray on apple seedling, 400 ppm (+++ at 100 ppm)
[7] = tested on: melon aphids (Aphis gossypii Glover); experiment: Mite/insect screen, MA; conditions: Aphis gossypii, percent mortality, read-out: MA RESULTS %
Procedure, shortened: as §1

[8] = tested on: Pseudoperonospora cubensis (downy mildew); experiment: Test 1 greenhouse foliar spray screen, downy mildew on squash; conditions: for DOWN MDEW: disease control rating, foliar spray on squash, 400 ppm (+++ at 100 ppm)
[9] = tested on: Cercospora beticola (leaf spot); experiment: Test 1 greenhouse foliar spray screen, leaf spot on sugar beet; conditions: for LEAF SPOT: disease control rating, foliar spray on sugar beet, 400 ppm (+++ at 100 ppm)
[10] = tested on: Pyricularia oryzae (rice blast); experiment: whole plant or invertebrate; conditions: for RICE BLAST: disease control rating, foliar spray on rice, 400 ppm (+++ at 100 ppm)
[11] = tested on: Botrytis cinerea (gray mold); experiment: Test 1 greenhouse foliar spray screen, gray mold on grape berries; conditions: for GRAY MOLD: disease control rating, spray on grape berries, 400 ppm (+++ at 100 ppm)
[12] = foliar, rate 200 ppm, foliar spray on squash
[13] = foliar, rate 400 ppm, foliar spray on squash

SMILES	mortality at 200 ppm ([1]; SAW, SM & MA RATE 200 PPM) [%]	mortality at 400 ppm ([1]; SAW, SM & MA RATE 400 PPM) [%]	LEAF BLOT [2]	LEAF RUST [3]	mortality at 12 ppm (corn rootworm; CRW RATE 12.00 PPM) [%]	mortality at 24 ppm (corn rootworm; CRW RATE 24.00 PPM) [%]	POWD MDEW [4]	mortality at 200 ppm ([5]; SAW, SM & MA RATE 200 PPM) [%]	mortality at 400 ppm ([5]; SAW, SM & MA RATE 400 PPM) [%]	APPL SCAB [6]	mortality at 200 ppm ([7]; SAW, SM & MA RATE 200 PPM) [%]	mortality at 400 ppm ([7]; SAW, SM & MA RATE 400 PPM) [%]	DOWN MDEW [8]	LEAF SPOT [9]	RICE BLAST [10]	GRAY MOLD [11]	also measured
COc1ccc(CCNc2ccnc3ccc(C)cc23)cc1 [Example 46, N-[2-(4-methoxyphenyl)ethyl]-6-methyl-4-quinolinamine]	0	0	+ (20-89% control at 400 ppm)	+ (20-89% control at 400 ppm)	0	0	+ (20-89% control at 400 ppm)	0	0	+ (20-89% control at 400 ppm)	0	0	++ (90-100% control at 400 ppm)	+++ (90-100% control at 100 ppm)	++ (90-100% control at 400 ppm)	- (0-19% control at 400 ppm)	
Clc1cccc2c(NCCc3cccc4ccccc34)ccnc12 [Example 155, 8-chloro-N-[2-(1-naphthyl)ethyl]-4-quinolinamine]	0		- (0-19% control at 400 ppm)	- (0-19% control at 400 ppm)	0		- (0-19% control at 400 ppm)	0		- (0-19% control at 400 ppm)	0		+++ (90-100% control at 100 ppm)	- (0-19% control at 400 ppm)	+ (20-89% control at 400 ppm)	- (0-19% control at 400 ppm)	
Clc1ccc2c(NCCc3ccc(Cl)c(Cl)c3)ccnc2c1 [Example 101, 7-chloro-N-[2-(3,4-dichlorophenyl)ethyl]-4-quinolinamine]	0	0	- (0-19% control at 400 ppm)	+ (20-89% control at 400 ppm)	0	0	+++ (90-100% control at 100 ppm)	0	0	+ (20-89% control at 400 ppm)	0	0	+++ (90-100% control at 100 ppm)	+++ (90-100% control at 100 ppm)	- (0-19% control at 400 ppm)	- (0-19% control at 400 ppm)	
COc1ccc(CCNc2ccnc3c(F)cccc23)cc1OC [Example 38, N-[2-(3,4-dimethoxyphenyl)ethyl]-8-fluoro-4-quinolinamine]	0	0	- (0-19% control at 400 ppm)	++ (90-100% control at 400 ppm)	0	0	+ (20-89% control at 400 ppm)	0	0	- (0-19% control at 400 ppm)	0	0	+++ (90-100% control at 100 ppm)	+ (20-89% control at 400 ppm)	- (0-19% control at 400 ppm)	- (0-19% control at 400 ppm)	
Fc1ccc2c(OCCc3ccc(-c4ccccc4)cc3)ccnc2c1 [Example 233, 4-[2-(1,1'-biphenyl)-4-ylethoxy]-7-fluoroquinoline]																	mortality at 200 ppm [1, 12]: 100%; mortality at 400 ppm [1, 13]: 80%; activity as miticides ([1]; summary statement in the description): particularly excellent activity; pest or weed control at 400 ppm ([2]; Zymoseptoria tritici, Test 1, foliar spray on wheat, disease control rating at 400 ppm / 100 ppm, read-out: LEAF BLOT): 20 to 89%; pest or weed control at 400 ppm ([3]; Puccinia recondita, foliar, Test 1, foliar spray on wheat, disease control rating at 400 ppm / 100 ppm): 90 to 100%; mortality at 12 ppm (corn rootworm; CRW rate 12.00 ppm): 0%; mortality at 24 ppm (corn rootworm; CRW rate 24.00 ppm): 0%; pest or weed control at 400 ppm ([4]; Blumeria graminis, foliar, Test 1, foliar spray on wheat, disease control rating at 400 ppm / 100 ppm, read-out: POWD MDEW): 20 to 89%; mortality at 200 ppm [5, 12]: 0%; mortality at 400 ppm [5, 13]: 0%; pest or weed control at 400 ppm ([6]; Venturia inaequalis, Test 1, foliar spray on apple seedling, disease control rating at 400 ppm / 100 ppm, read-out: APPL SCAB): 0 to 19%; mortality at 200 ppm [7, 12]: 50%; mortality at 400 ppm [7, 13]: 80%; pest or weed control at 400 ppm ([8]; Pseudoperonospora cubensis, foliar, Test 1, foliar spray on squash, disease control rating at 400 ppm / 100 ppm, read-out: DOWN MDEW): 20 to 89%; pest or weed control at 400 ppm ([9]; Cercospora beticola, Test 1, foliar spray on sugar beet, disease control rating at 400 ppm / 100 ppm): 0 to 19%; pest or weed control at 400 ppm ([10]; Pyricularia oryzae, foliar, read-out: RICE BLAST, Test 1, foliar spray on rice, disease control rating at 400 ppm / 100 ppm): 90 to 100%; pest or weed control at 400 ppm ([11]; Botrytis cinerea, foliar, Test 1, spray on grape berries, disease control rating at 400 ppm / 100 ppm): 0 to 19%
Fc1cccc2c(NCCc3ccccc3)cc(NCCc3ccccc3)nc12 [Example 183, 8-fluoro-N,N'-bis(2-phenylethyl)-2,4-quinolinediamine]			- (0-19% control at 400 ppm)	++ (90-100% control at 400 ppm)			- (0-19% control at 400 ppm)			+ (20-89% control at 400 ppm)			+++ (90-100% control at 100 ppm)	+ (20-89% control at 400 ppm)	++ (90-100% control at 400 ppm)	- (0-19% control at 400 ppm)	mortality at 200 ppm [1, 12]: 0%; mortality at 12 ppm (corn rootworm; CRW rate 12.00 ppm): 0%; mortality at 200 ppm [5, 12]: 0%; mortality at 200 ppm [7, 12]: 0%
Fc1ccc(CCNc2ccnc3ccccc23)cc1 [Example 35, N-[2-(4-fluorophenyl)ethyl]-4-quinolinamine]	0		- (0-19% control at 400 ppm)	+ (20-89% control at 400 ppm)	0		+ (20-89% control at 400 ppm)	0		- (0-19% control at 400 ppm)	0		+++ (90-100% control at 100 ppm)	+++ (90-100% control at 100 ppm)	+ (20-89% control at 400 ppm)	- (0-19% control at 400 ppm)	
Fc1cccc2c(NC3CC3c3ccccc3)ccnc12 (centres unmarked) [Example 123, 8-fluoro-N-(2-phenylcyclopropyl)-4-quinolinamine]	0		- (0-19% control at 400 ppm)	+ (20-89% control at 400 ppm)	0		- (0-19% control at 400 ppm)	0		- (0-19% control at 400 ppm)	0		+++ (90-100% control at 100 ppm)	- (0-19% control at 400 ppm)	+ (20-89% control at 400 ppm)	- (0-19% control at 400 ppm)	
CC(Cc1ccccc1)Nc1ccnc2c(F)cccc12 (centres unmarked) [Example 92, 8-fluoro-H-(1-methyl-2-phenylethyl)-4-quinolinamine]	0		+++ (90-100% control at 100 ppm)	+++ (90-100% control at 100 ppm)	0		+ (20-89% control at 400 ppm)	0		- (0-19% control at 400 ppm)	0		++ (90-100% control at 400 ppm)	+ (20-89% control at 400 ppm)	++ (90-100% control at 400 ppm)	- (0-19% control at 400 ppm)	
